Patent publication US9926293B2, “Multivalent RAS binding compounds” (THE TRUSTEES OF COLUMBIA UNIVERSITY IN THE CITY OF NEW YORK, priority 2014, dated 2018)

Assays:
U2OS (WT) = test: Cell viability assay (384-well, Alamar blue); assay type: cell-based; conditions: Homo sapiens, Table 7, 48 hours, 8-point dilution series
Procedure: (§1) All cell culture assays were incubated at 37° C., 5% CO2 in media containing Dulbecco's Modified Eagle Medium (DMEM) with 10% fetal bovine serum (FBS) and 1% penicillin-streptomycin (PS). 384-well format for EC50 determination: cells were trypsinized, counted, and seeded into 384-well plates at 1,000 cells/well. After 12-16 hours, compounds (as 50 mM stocks in DMSO) were arrayed in an 8- or 16-point dilution series in 384-well polypropylene plates. Compound solutions were transferred at a 1:5 dilution into the assay plates. After 48 hours, a 50% Alamar blue solution was added to a final concentration of 10% Alamar blue. After 6 hours of incubation, fluorescence intensity was determined using a Victor3 plate reader (Perkin Elmer) with a 535 nm excitation filter and a 590 nm emission filter. All compound measurements were performed in triplicate. For experiments performed in 6-well format, cells were trypsinized, counted, and seeded into 6-well plates at 200,000 cells per well 16 h prior to use. Media was then aspirated and replaced with 2 mL of media containing compounds at the indicated concentrations (from 10 mM stocks in DMSO). After 24 hours, cells were trypsinized and viability was determined using Trypan Blue exclusion assay.

HT1080 (NRAS Q61K) = test: Cell viability assay (384-well, Alamar blue); assay type: cell-based; conditions: Homo sapiens, HT-1080, 48 h
Procedure: as §1

BxPC-3 (WT) = test: Cell viability assay (384-well, Alamar blue); assay type: cell-based; conditions: Homo sapiens, Table 7, 48 hours, 8-point dilution series
Procedure: as §1

[1] = system: RAS-RAF interaction in BJeLR cells; test: Cell-based RAS pulldown with CRAF-RBD agarose beads; conditions: 2 μM and 8 μM, 24 hours, serum free
Procedure: FIG. 20A-FIG. 20B show BJeLR cells were treated as described in FIG. 19A-FIG. 19B and the lysate was incubated with CRAF-RBD bound agarose beads. The beads were then washed three times with PBS to remove any unbound RAS and the bound fraction was then denatured and subjected to detection by western blotting using a pan-RAS antibody (FIG. 20A).
BJeLR cells were seeded at one million cells/10 cm dish in 10% FBS and incubated at 37° C. overnight. The medium was then aspirated and replaced with serum free media containing the inhibitors (from 10 mM DMSO stocks). The cells were then incubated for 24 hours at 37° C. The medium was removed, washed with cold PBS, lysed and spun down at 13,000 rpm at 4° C. to remove unlysed cells and debris. The lysate was incubated with Raf-1 RBD agarose beads (EMD millipore) for 2 hours with rotation at 4° C. The solution was then spun down at 1500×g and the supernatant removed. The beads were washed twice with PBS, resuspended in 2.5×SDS, and then analyzed by western blotting procedure.

[2] = Aqueous solubility as noted during MST; assay type: physicochemical; conditions: noted in MST buffer
[3] = system: phosphorylated ERK in BJeLR (HRAS^G12V); test: Western blot of phosphorylated ERK; assay type: cell-based; conditions: 2 μM and 8 μM, 24 hours, serum free
Procedure: FIG. 19A-FIG. 19B show BJeLR cells were treated with DMSO, RAS inhibitor at 2 μM and 8 μM, U0126 at 8 μM, or BEZ-235 at 0.2 μM for 24 hours under serum free conditions. Cells were then lysed and the lysate was subjected to detection of phosphorylated Erk and total Erk by western blotting (FIG. 19A). Three independent experiments yielded essentially equivalent results.
(§2) BJeLR cells were seeded in 60 mm dishes at 1 million cells/dish in media containing DMEM and 10% FBS with 1% penicillin and streptomycin (PS), 12-16 hours prior to use. The medium was then aspirated and compounds added as solutions in serum free medium (DMEM with 1% PS) to the dishes and treated for 24 hours or at the indicated time points. Following treatment, the medium was aspirated from each dish and cells were washed twice with PBS. […] Antibodies for pERK1/2, ERK1/2, pAKT ser473, AKT, pan-RAS, RALA, PI3Kgamma (Cell signaling), and RAF-1 (Santa Cruz) were detected using a goat anti-rabbit or goat anti-mouse IgG antibody conjugated to an IRdye at 800CW and 680CW conjugated, respectively (Li-COR biosciences).

[4] = system: phosphorylated AKT in BJeLR cells; test: Western blot of phosphorylated AKT; assay type: cell-based; conditions: 2 μM and 8 μM, 24 hours, serum free
Procedure: FIG. 21A-FIG. 21B show BJeLR cells were treated as described in FIG. 19A-FIG. 19B and the lysate was subjected to detection of phosphorylated AKT ([…]) and total AKT by western blotting (FIG. 21A).
as §2

[5] = system: Mouse embryonic fibroblasts (MEFs), null Hras and Nras, floxed Kras; test: Growth inhibition of MEFs with floxed Kras locus; assay type: cell-based; conditions: up to 5 μM, 24 hours, vs DMSO
Procedure: In parallel, cells were treated with DMSO or 4OHT at 600 nM for 6 days. […] Cells were then lysed and treated with a pro-fluorescent caspase 3/7 substrate (rhodamine 110 bis-N-CBZ-L-aspartyl-L-gluramyl-L-valyl-aspartic acid amide) for 16 hours and measured.
as §1, with “Media was then aspirated and replaced with 2 mL of media containing compounds at the indicated concentrations (from 10 mM stocks in DMSO).” left out, “assay. […]” for “assay.”

MDA-MB-231 xenografts = test: Mouse xenograft, therapeutic study; assay type: in vivo, athymic nude mice
Procedure: Eight week old nude female mice were injected with 7 million MDA-MB-231 cells.
For the therapeutic study, athymic nude mice (eight weeks; Charles River Laboratories) were injected with 7 million MDA-MB-231 cells subcutaneously. […] Tumor size was measured by electronic caliper every 2 days and calculated using the formula: 0.523×Length×width^2.

[6] = Table 7, 8-point dilution series

Row | Structure (SMILES) | EC50 (U2OS (WT)) [µM] | EC50 (HT1080 (NRAS Q61K); [6]) [µM] | EC50 (HT1080 (NRAS Q61K); Table 8, 384-well, alamar blue) [µM] | EC50 (BxPC-3 (WT)) [µM] | CRAF-RBD-bound RAS [1] | aqueous solubility [2] | pERK abundance [3] | phosphorylated AKT [4] | growth inhibition [5] [%] | tumor size (MDA-MB-231 xenografts; intravenous and intraperitoneal injections 30 mg/kg, 4 IV and 6 IP doses) | tumor size (MDA-MB-231 xenografts; orally 180 mg/kg, 10 doses over two weeks)
1 | NC1(C(=O)NCCCn2cc(-c3cccc(F)c3)c3c(CN4CCN(CCOc5ccc(Cl)cc5)CC4)cccc32)CCNCC1 [Compound 34MEW43, 4-amino-N-(3-(4-((4-(2-(4-chlorophenoxy)ethyl)piperazin-1-yl)methyl)-3-(3-fluorophenyl)-1H-indol-1-yl)propyl)piperidine-4-carboxamide] | 12.3 | 5.17 | 5.2 | 13.1 | dose-dependent decrease in CRAF-RBD-bound RAS | low aqueous solubility | effectively decreased pERK abundance in a dose-dependent manner | dose-dependent decrease in phosphorylated AKT |  |  | 
2 | NC1(C(=O)NCCCn2cc(-c3ccc(OC(F)(F)F)cc3)c3cc(CN4CCN(Cc5c(Cl)cccc5Cl)CC4)ccc32)CCNCC1 [Compound 31MEW44, 4-amino-N-(3-(5-((4-(2,6-dichlorobenzyl)piperazin-1-yl)methyl)-3-(4-(trifluoromethoxy)phenyl)-1H-indol-1-yl)propyl)piperidine-4-carboxamide] | 5.03 | 2.47 | 1.1 | 5.29 | dose-dependent decrease in CRAF-RBD-bound RAS | more soluble | effectively decreased pERK abundance in a dose-dependent manner | dose-dependent decrease in phosphorylated AKT | 75 | almost complete elimination of the tumor | almost complete elimination of the tumor
